Structures are written as SMILES. Entries after “also recorded” stand apart in the source; their conditions may differ. Counter-ions that a name gives are not always drawn. Like-named read-outs stand apart in the source and are kept apart here.

This is an account of results in patent US8552038B2, “Crystalline forms of thiazolidinedione compound and its manufacturing method” (Daiichi Sankyo Company, Limited, priority 2007, dated 2013).

Data set [1] can be described thus: Solubility test in simulated gastric fluid. The data set is classed as physicochemical. Particulars: dihydrochloride; for Solubility: 37° C., after 60 minutes, paddle 250 rpm, free body conversion. On the procedure:
Solubilities of Crystalline form A and Crystalline form B of Compound (I) in a simulated gastric fluid were measured by the method below (free body conversion).
10 times concentrated Liquid 1 used for the disintegration test of the Japanese Pharmacopoeia (purchased from Kanto Chemical Co., Inc.) was diluted 10-fold with purified water to give a simulated gastric fluid. Approximately 80 mg of the crystalline form for measurement were precisely measured, transferred to a 25 ml volumetric flask, and dissolved in methanol to bring the total volume to 25 ml. 2 ml of the resulting solution were transferred to a 50 ml volumetric flask, and the simulated gastric fluid was added thereto to bring the total volume to 50 ml to give a standard solution.
By using an elution testing machine NTR-6100A (Toyama Sangyo Co., Ltd.), approximately 100 mg of the subject crystalline form were added to 500 ml of the simulated gastric fluid at 37° C., and agitated with a paddle (250 rpm). After 60 minutes, samples were taken from the test solution. The absorbance of the standard solution and test solution samples was measured at 289 nm and 360 nm by using a UV visible spectrophotometer.
weighing amount of the crystalline form used for the preparation of the standard solution (mg): WS;
absorbance of the standard solution at 289 nm: AS289;
absorbance of the standard solution at 360 nm: AS360;
absorbance of the test solution at 289 nm: AT289;
absorbance of the test solution at 360 nm: AT360;
molecular weight of the dihydrochloride monohydrate of Compound (I): 593.52; and
molecular weight of the free body of Compound (I): 502.58

The target of data set [2] is T1, peroxisome proliferator-activated receptor (PPAR) γ (Homo sapiens, UniProt P37231).
T1 sequence (P37231 1-505): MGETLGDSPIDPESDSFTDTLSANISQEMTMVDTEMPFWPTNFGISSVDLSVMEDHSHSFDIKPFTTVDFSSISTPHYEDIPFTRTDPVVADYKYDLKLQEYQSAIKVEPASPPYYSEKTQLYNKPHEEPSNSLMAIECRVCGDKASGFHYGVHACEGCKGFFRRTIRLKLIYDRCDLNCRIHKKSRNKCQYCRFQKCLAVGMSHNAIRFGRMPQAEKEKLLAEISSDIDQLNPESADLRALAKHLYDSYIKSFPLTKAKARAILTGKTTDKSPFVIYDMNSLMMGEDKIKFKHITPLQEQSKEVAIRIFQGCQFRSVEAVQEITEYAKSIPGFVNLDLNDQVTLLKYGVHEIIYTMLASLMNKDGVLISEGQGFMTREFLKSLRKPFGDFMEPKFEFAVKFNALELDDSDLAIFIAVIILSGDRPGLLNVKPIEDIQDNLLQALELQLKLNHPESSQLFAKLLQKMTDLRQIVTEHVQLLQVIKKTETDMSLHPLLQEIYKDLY
To be noted: disclosed in Patent Literature 1-5; cited from earlier work.

Data set [3] concerns human kidney cancer. To be noted: Test Example 7, cited from earlier work.
The test system of data set [4] is human colon cancer cell lines. Particulars: Test Example 3 in WO 2007/091622; cited from earlier work.
The subject of data set [5] is cancer cells. To be noted: cited from earlier work.
In data set [6] the test system is human non-small cell lung cancer. To be noted: Test Example 5, cited from earlier work.
Data set [7] has as its system human leukemia cells. To be noted: Test Example 2 in WO 2007/091622; cited from earlier work.
The subject of data set [8] is human stomach cancer cells, human breast cancer cells, small cell lung cancer, pancreas cancer cells, prostate cancer cells, kidney cancer cells …. Particulars: Test Example 1 in WO 2007/091622; cited from earlier work.

For orientation: Solubility means the concentration that dissolves in the medium under given conditions. Lower therefore signals little dissolved substance. Regarding `Cc1cc(Oc2ccc3nc(COc4ccc(CC5SC(=O)NC5=O)cc4)n(C)c3c2)cc(C)c1N` (single isomer, unassigned) [Crystalline form A, monohydrate of 5-(4-{[6-(4-amino-3,5-dimethylphenoxy)-1-methyl-1-H-benzimidazol-2-yl]methoxy}benzyl)-1,3-thiazolidine-2,4-dione dihydrochloride], in data set [1], the Solubility was 76.92 µg/mL and the “Solubility, assessment in words” value is recorded as “sufficient solubility as a pharmaceutical ingredient”.
With `Cc1cc(Oc2ccc3nc(COc4ccc(CC5SC(=O)NC5=O)cc4)n(C)c3c2)cc(C)c1N` (single isomer, unassigned) [Crystalline form B, monohydrate of 5-(4-{[6-(4-amino-3,5-dimethylphenoxy)-1-methyl-1-H-benzimidazol-2-yl]methoxy}benzyl)-1,3-thiazolidine-2,4-dione dihydrochloride], in data set [1], the Solubility was 155.25 µg/mL and the “Solubility, assessment in words” value is reported as “sufficient solubility as a pharmaceutical ingredient; also recorded: higher solubility than the Compound (I) which has been known”.
Turning to `Cc1cc(Oc2ccc3nc(COc4ccc(CC5SC(=O)NC5=O)cc4)n(C)c3c2)cc(C)c1N` (centres unmarked) [Compound (I), 5-(4-{[6-(4-amino-3,5-dimethylphenoxy)-1-methyl-1-H-benzimidazol-2-yl]methoxy}benzyl)-1,3-thiazolidine-2,4-dione], the “ability of PPARγ activation” value in data set [2] is recorded as “significant ability of peroxisome proliferator-activated receptor (PPAR) γ activation”.
Turning to `Cc1cc(Oc2ccc3nc(COc4ccc(CC5SC(=O)NC5=O)cc4)n(C)c3c2)cc(C)c1N` (centres unmarked) [dihydrochloride of Compound (I), 5-(4-{[6-(4-amino-3,5-dimethylphenoxy)-1-methyl-1-H-benzimidazol-2-yl]methoxy}benzyl)-1,3-thiazolidine-2,4-dione dihydrochloride], the antitumor activity result in data set [3] (alone) and in data set [6] (alone) was “exerts an antitumor activity” in each case. For the same molecule, the “antitumor activity, combination” value in data set [3] (in combination with a VEGFR inhibitor or a Raf kinase inhibitor) and in data set [6] (in combination with an EGFR inhibitor) was “enhanced antitumor activity” each time. For the same molecule, the “antitumor activity in vivo” value in data set [4] is recorded as “significant antitumor activity”. Besides, the “activity to suppress proliferation in cancer cells, combination” value is on record as “synergetic activity to suppress proliferation” in data set [5] (in combination with a VEGFR inhibitor or a Raf kinase inhibitor, Test Example 6) and “synergetic activity to suppress proliferation” in data set [5] (in combination with an epidermal growth factor receptor (EGFR) inhibitor, Test Example 4). For the same molecule, the “proliferation suppressing activity in human leukemia cells” value in data set [7] is on record as “inhibits significantly proliferation suppressing activity”. The “activity to suppress proliferation of cancer cells” value in data set [8] is “significant activity to suppress proliferation”.
